What was measured:
[1] = tested on: OPM-2 human multiple myeloma cell line; experiment: Cell Viability Assay (OPM-2 10 FBS); assay type: cell-based; conditions: OPM-2 cells, CellTiter-Glo
Protocol: Cell Viability Assay (OPM-2 10 FBS)
Cells were seeded into 384-well plates at 3000 cells/well density in complete growth medium containing 10% FBS, and incubated for 16 h with serially diluted test compounds in a 37° C. incubator with 5% CO2. Cell viability was tested using CellTiter-Glo® assay (Promega, Madison, WI) according to the manufacturer recommendations. Luminescence was determined using an EnVision® Multilabel plate reader 25 min after the addition of detection reagent. IC50 values were then calculated with Xlfit using a logistical 4-parameter fit model in GraphPad Prism (GraphPad Software, San Diego, CA) or in Genedata Screener® (Genedata, Basel, Switzerland).

[2] = biological target: T1, Mcl-1/Bim interaction, recombinant human Mcl-1 (171-327) (Homo sapiens, UniProt Q07820); experiment: Cell free Mcl-1: Bim Affinity Assay (Mcl-1 HTRF); assay type: binding
T1 construct: made in house
Outline: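 Displacement of biotinylated Bim 51-76 peptide is followed by TR-FRET. Incubation runs overnight. Duplicate points are fitted with a four-parameter sigmoid to yield IC50.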

[3] = cell free Mcl-1:Bim TR-FRET, recombinant human Mcl-1 (171-327)
[4] = Homo sapiens, OPM-2, 16 h, 16 h
[5] = TR-FRET, 0.1 nM Mcl-1 (171-327), 0.05 nM biotin-Bim (51-76)
[6] = Homo sapiens, OPM-2, 16 h, 16 h incubation

T1 sequence (Q07820 171-327): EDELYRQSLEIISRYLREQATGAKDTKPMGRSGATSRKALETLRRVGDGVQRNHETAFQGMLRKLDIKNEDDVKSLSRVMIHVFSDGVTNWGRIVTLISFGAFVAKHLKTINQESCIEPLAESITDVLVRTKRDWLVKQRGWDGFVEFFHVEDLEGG

| SMILES | IC50 [2, 3] | IC50 [2, 5] | further results |
| --- | --- | --- | --- |
| C[C@H]1C/C=C/C[C@H](O)[C@@H]2CC[C@H]2CN2C[C@@]3(CCCc4cc(Cl)ccc43)COc3ccc(cc32)C(=O)NS(=O)(=O)[C@H]1C (single isomer, unassigned) [Example 557] | 1.08 nM | – | IC50 ([1]; 16 h): 1040 nM |
| C[C@@H]1[C@@H](C)C/C=C/[C@H](OCCBr)[C@@H]2CC[C@H]2CN2C[C@@]3(CCCc4cc(Cl)ccc43)COc3ccc(cc32)C(=O)NS1(=O)=O [Example 14, (1S,3′R,6′R,7′S,8′E,11′S,12′R)-7′-(2-bromoethoxy)-6-chloro-11′,12′-dimethyl-3,4-dihydro-2H,15′H-spiro[naphthalene-1,22′-[20]oxa[13]thia[1,14]diazatetracyclo[14.7.2.0^3,6.0^19,24]pentacosa[8,16,18,24]tetraen]-15′-one 13′,13′-dioxide] | – | 3.92 nM | IC50 [1, 4]: 1100 nM |
| O=C1NS(=O)(=O)CCC/C=C/[C@@H](O)[C@@H]2CC[C@H]2CN2C[C@@]3(CCCc4cc(Cl)ccc43)COc3ccc1cc32 [Example 952, (1S,3′R,6′R,7′R,8′E)-6-chloro-7′-hydroxy-3,4-dihydro-2H,15′H-spiro[naphthalene-1,22′-[20]oxa[13]thia[1,14]diazatetracyclo[14.7.2.0^3,6.0^19,24]pentacosa [8,16,18,24]tetraen]-15′-one 13′,13′-dioxide] | – | 1.28 nM | IC50 ([1]; Homo sapiens, 16 h incubation): 6380 nM |
| O=C1NS(=O)(=O)[C@H](C2CC2)CC/C=C/[C@H](O)[C@@H]2CC[C@H]2CN2C[C@@]3(CCCc4cc(Cl)ccc43)COc3ccc1cc32 (single isomer, unassigned) [Example 148] | – | 0.285 nM | IC50 ([1]; 16 h): 458 nM |
| O=C1NS(=O)(=O)[C@H]2CCC[C@H]2C/C=C/[C@H](O)[C@@H]2CC[C@H]2CN2C[C@@]3(CCCc4cc(Cl)ccc43)COc3ccc1cc32 (single isomer, unassigned) [Example 324] | – | 1.68 nM | IC50 ([1]; 16 h): 1940 nM |
| CC[C@@H]1CC/C=C/[C@H](OCC(=O)N2CCOCC2)[C@@H]2CC[C@H]2CN2C[C@@]3(CCCc4cc(Cl)ccc43)COc3ccc(cc32)C(=O)NS1(=O)=O [Example 979, (1S,3′R,6′R,7′S,8′E,12′R)-6-chloro-12′-ethyl-7′-(2-(4-morpholinyl)-2-oxoethoxy)-3,4-dihydro-2H,15′H-spiro[naphthalene-1,22′-[20]oxa[13]thia[1,14]diazatetracyclo[14.7.2.0^3,6.0^19,24]pentacosa [8,16,18,24]tetraen]-15′-one 13′,13′-dioxide] | – | – | IC50 [1, 6]: 16900 nM |
| CO[C@H]1C/C=C/[C@H](C)[C@@H](C)S(=O)(=O)NC(=O)c2ccc3c(c2)N(C[C@@H]2CC[C@H]21)C[C@@]1(CCCc2cc(Cl)ccc21)CO3 [Example 17, (1S,3′R,6′R,7′S,9′E,11′S,12′R)-6-chloro-7′-methoxy-11′,12′-dimethyl-3,4-dihydro-2H,15′H-spiro[naphthalene-1,22′-[20]oxa[13]thia[1,14]diazatetracyclo[14.7.2.0^3,6.0^19,24]pentacosa[9,16,18,24]tetraen]-15′-one 13′,13′-dioxide] | – | – | IC50 ([1]; Homo sapiens, 16 h): 7920 nM |
| CC[C@@H]1CC/C=C/[C@H](OCCC(=O)OC)[C@@H]2CC[C@H]2CN2C[C@@]3(CCCc4cc(Cl)ccc43)COc3ccc(cc32)C(=O)NS1(=O)=O [Example 1007] | – | – | IC50 [1, 6]: 74 nM |
| O=C1NS(=O)(=O)[C@@H](C(F)(F)F)CCCC[C@H](O)[C@@H]2CC[C@H]2CN2C[C@@]3(CCCc4cc(Cl)ccc43)COc3ccc1cc32 (single isomer, unassigned) [Example 433] | – | 3.23 nM | – |
| CN(C)C(=O)[C@H]1CC/C=C/[C@H](O)[C@@H]2CC[C@H]2CN2C[C@@]3(CCCc4cc(Cl)ccc43)COc3ccc(cc32)C(=O)NS1(=O)=O (single isomer, unassigned) [Example 437] | – | 3.77 nM | – |
| O=C1NS(=O)(=O)CCCOC[C@H](O)[C@@H]2CC[C@H]2CN2C[C@@]3(CCCc4cc(Cl)ccc43)COc3ccc1cc32 (single isomer, unassigned) [Example 870, (3R,6R,7R,22S)-6′-chloro-7-hydroxy-3′,4′-dihydro-2′H,15H-spiro[9,20-dioxa-13-thia-1,14-diazatetracyclo[14.7.2.0^3,6.0^19,24]pentacosa-16,18,24-triene-22,1′-naphthalen]-15-one 13,13-dioxide or (3R,6R,7S,22S)-6′-chloro-7-hydroxy-3′,4′-dihydro-2′H,15H-spiro[9,20-dioxa-13-thia-1,14-diazatetra-cyclo[14.7.2.0^3,6.0^19,24]pentacosa-16,18,24-triene-22,1′-naphthalen]-15-one 13,13-dioxide] | 8.26 nM | – | – |
| O=C1NS(=O)(=O)[C@@H](CCOC(F)(F)F)CC/C=C/[C@H](O)[C@@H]2CC[C@H]2CN2C[C@@]3(CCCc4cc(Cl)ccc43)COc3ccc1cc32 (single isomer, unassigned) [Example 1013] | – | 18.1 nM | – |
| O=C1NS(=O)(=O)C/C=C/[C@H](O)CC[C@@H]2CC[C@H]2CN2C[C@@]3(CCCc4cc(Cl)ccc43)COc3ccc1cc32 (single isomer, unassigned) [Example 500] | 7.08 nM | – | – |
| C[C@@H]1CC/C=C/C(=O)[C@@H]2CC[C@H]2CN2C[C@@]3(CCCc4cc(Cl)ccc43)COc3ccc(cc32)C(=O)NS1(=O)=O [Example 604, (1S,3′R,6′R,8′E,12′R)-6-chloro-12′-methyl-3,4-dihydro-2H,7′H,15′H-spiro[naphthalene-1,22′-[20]oxa[13]thia[1,14]diazatetracyclo[14.7.2.0^3,6.0^19,24]pentacosa [8,16,18,24]tetraene]-7′,15′-dione 13′,13′-dioxide] | 9.58 nM | – | – |
| CC[C@@H]1CCCCC(=O)[C@@H]2CC[C@H]2CN2C[C@@]3(CCCc4cc(Cl)ccc43)COc3ccc(cc32)C(=O)NS1(=O)=O [Example 886, (1S,3′R,6′R,12′R)-6-chloro-12′-ethyl-3,4-dihydro-2H,7′H,15′H-spiro[naphthalene-1,22′-[20]oxa[13]thia[1,14]diazatetracyclo[14.7.2.0^3,6.0^19,24]pentacosa [16,18,24]triene]-7′,15′-dione 13′,13′-dioxide] | – | – | IC50 [1, 4]: 12300 nM |
| O=C1NS(=O)(=O)C(CO)CCC=CCC2CCC2CN2CC3(CCCc4cc(Cl)ccc43)COc3ccc1cc32 (single isomer, unassigned) [Example 450] | – | 6.76 nM | – |
| O=C1NS(=O)(=O)C/C=C/CCC[C@@H]2CC[C@H]2CN2C[C@@]3(CCCc4cc(Cl)ccc43)COc3ccc1cc32 (single isomer, unassigned) [Example 498] | 9.03 nM | – | – |
| CC[C@@H]1CC/C=C/[C@H](OCC(=O)NC(C)C)[C@@H]2CC[C@H]2CN2C[C@@]3(CCCc4cc(Cl)ccc43)COc3ccc(cc32)C(=O)NS1(=O)=O [Example 422, 2-(((1S,3′R,6′R,7′S,8′E,12′R)-6-chloro-12′-ethyl-13′,13′-dioxido-15′-oxo-3,4-dihydro-2H-spiro[naphthalene-1,22′-[20]oxa[13]thia[1,14]diazatetracyclo[14.7.2.0^3,6.0^19,24]pentacosa [8,16,18,24]tetraen]-7′-yl)oxy)-N-(1-methylethyl)acetamide] | – | 0.865 nM | – |
| O=C1NS(=O)(=O)CCCCCC[C@H](O)[C@@H]2CC[C@H]2CN2C[C@@]3(CCCc4cc(Cl)ccc43)COc3ccc1cc32 [Example 835, (1S,3′R,6′R,7′S)-6-chloro-7′-hydroxy-3,4-dihydro-2H,16′H-spiro[naphthalene-1,23′[21]oxa[14]thia[1,15]diazatetracyclo[15.7.2.0^3,6.0^20,25]hexacosa[17,19,25]trien]-16′-one 14′,14′-dioxide] | 3.44 nM | – | – |
| O=C1NS(=O)(=O)CCOC[C@@H](O)[C@@H]2CC[C@H]2CN2C[C@@]3(CCCc4cc(Cl)ccc43)COc3ccc1cc32 (single isomer, unassigned) [Example 866, (3R,6R,7S,21S)-6′-chloro-7-hydroxy-3′,4′-dihydro-2′H,14H-spiro[9,19-dioxa-12-thia-1,13-diazatetracyclo[13.7.2.0^3,6.0^18,23]tetracosa-15,17,23-triene-21,1′-naphthalen]-14-one 12,12-dioxide or (3R,6R,7R,21S)-6′-chloro-7-hydroxy-3′,4′-dihydro-2′H,14H-spiro[9,19-dioxa-12-thia-1,13-diazatetracyclo[13.7.2.0^3,6.0^18,23]tetracosa-15,17,23-triene-21,1′-naphthalen]-14-one 12,12-dioxide] | 9.53 nM | – | – |

More lines, main results first:

| IC50 [2, 3] | SMILES | IC50 [2, 5] | further results |
| --- | --- | --- | --- |
| 0.576 nM | CC[C@@H]1C/C=C/[C@H](O)[C@@H]2CC[C@H]2CN2C[C@@]3(CCCc4cc(Cl)ccc43)COc3ccc(cc32)C(=O)NS1(=O)=O [Example 762, (1S,3′R,6′R,7′S,8′E,11′R)-6-chloro-7′-hydroxy-11′-ethyl-3,4-dihydro-2H,14′H-spiro[naphthalene-1,21′-[19]oxa[12]thia[1,13]diazatetracyclo[13.7.2.0^3,6.0^18,23]tetracosa[8,15,17,23]tetraen]-14′-one 12′,12′-dioxide] | – | – |
| 18.3 nM | CC1C(O)CC=CCC2CCC2CN2CC3(CCCc4cc(Cl)ccc43)COc3ccc(cc32)C(=O)NS1(=O)=O (single isomer, unassigned) [Example 507] | – | – |

Source: US12091425B2 (AMGEN INC., priority 2016, dated 2024)
